Results reported in PMC10354055, “An optimized Nurr1 agonist provides disease-modifying effects in Parkinson’s disease models” (Nature Communications, 2023).
Where “and” joins values, the source holds several entries; their conditions need not be identical. Equal values may be shown once.

Experiments:
[1] = tested on: MPTP-induced male mice; experiment: Rotarod, sub-chronic MPTP-induced PD model mice; type: in vivo, mouse
Method: MPTP (Sigma-Aldrich) was intraperitoneally (i.p.) injected (30 mg/kg) for 5 days (Day 1-5). […] To test dyskinetic involuntary behavior, an L-DOPA injected group was included, which received 50 mg/kg of L-DOPA and 15 mg/kg of benserazide (Sigma-Aldrich) (i.p.) for 16 days (Day 1–16). All compounds were administered 6 h post-MPTP injection to avoid any effect of compounds on the MPTP metabolism in the brain. Motor and non-motor related behavior tests were performed on the following days as described in Fig. 4a in an assessor- and observer-blinded fashion. Pre-training and baseline setup for motor-related behaviors were performed 3 days prior to the injections. Mice were sacrificed and subjected to immunohistochemistry. Mice were housed at the Animal Care Facilities of McLean Hospital under a 12-h light/12-h dark cycle, ambient temperature and humidity. Animals were handled in accordance with McLean Hospital’s Institutional Animal Care and Use Committee (Protocol #: 2015N000002) and followed National Institutes of Health guidelines.
Mice were pre-trained on an automated 5-lane rotarod unit (10 rpm, 3 min) for 2 days and the baseline was measured (10 rpm, 90 sec) before the rotarod test (3 days before the MPTP injection or the first rotarod test at week 2). Rotarod measurements were performed using an accelerating protocol, accelerated smoothly from 2 to 30 rpm for 5 min. Time on the rotating rod was measured automatically by placing a trip switch under the floor beneath the rotating drum.

[2] = tested on: N27-A cells; experiment: Mitochondrial activity assay, Seahorse XFp, N27-A cells; type: cell-based, rat; set-up: Seahorse time trace (OCR): unit not given here; details: for Seahorse time trace (OCR): replicates
Method: Mitochondrial activity was measured using the Seahorse XFp analyzer (Agilent Technologies) according to the manufacturer’s instruction. Briefly, cells were plated onto wells of a XFp cell culture miniplate and incubated in a 37 °C incubator overnight. The assay was performed after cells were equilibrated for 1 h in XF assay medium supplemented with 10 mM D-glucose, 5 mM sodium pyruvate, and 2 mM glutamax in a non-CO2 incubator. Mitochondrial activity was monitored through sequential injections of 1 μM oligomycin, 2 μM carbonyl cyanide-4 (trifluoromethoxy) phenylhydrazone (FCCP) and 0.5 μM rotenone/antimycin A to calculate basal respiration (= baseline oxygen consumption rate (OCR)−rotenone/antimycin A OCR), maximal respiration (= FCCP OCR−rotenone/antimycin A OCR), ATP turnover (= baseline OCR−oligomycin OCR), and OCR changes after FCCP injection (= FCCP OCR−oligomycin OCR). Each plotted value was normalized to total protein quantified using a Bradford protein assay (Bio-Rad) and analyzed using the Seahorse WAVE Desktop software (Agilent Technologies).

SMILES: CCN1CCN(c2cc(N3CCN(CC)CC3)nc(NCCNc3ccnc4cc(Cl)ccc34)n2)CC1 [4A7C-301, N^1-(4,6-bis(4-ethylpiperazin-1-yl)pyrimidin-2-yl)-N^2-(7-chloroquinolin-4-yl)ethane-1,2-diamine]
- motor function, rotarod (in words) ([1]; CQ 40, 4A7C-301 5, L-DOPA 50 mg/kg/day, i.p., 16 days): significantly rescued
- Latency to fall ([1]; Figure 4b, MPTP-induced mice, individual animal values): 133.23 s and 202.2 s and 133.57 s and 139.3 s and 213.2 s and 211.5 s and 122.9 s and 231.93 s
- OXPHOS capacity reduced by MPP+ (in words) ([2]; CQ 100 µM, 4A7C-301 1 µM): efficiently restored
- OCR changes after FCCP injection ([2]; Control N27-A cells, MPP+ co-treatment, individual replicates (Supplementary Figure S1o)): 22.93 pmol/min/µg protein and 28.37 pmol/min/µg protein and 27.04 pmol/min/µg protein and 22.31 pmol/min/µg protein
- Seahorse time trace (OCR) ([2]; Fig. S1j/k, Control + MPP+, time 2 min): 28.88 and 28.2 and 18.44 and 14.94
- Seahorse time trace (OCR) ([2]; Fig. S1j/k, Control + MPP+, time 8 min): 28.86 and 28.61 and 14.72 and 11.2
- Seahorse time trace (OCR) ([2]; Fig. S1j/k, Control + MPP+, time 15 min): 28.17 and 28.8 and 13.75 and 10.54
- Seahorse time trace (OCR) ([2]; Fig. S1j/k, Control + MPP+, time 21 min): 9.43 and 9.81 and 3.69 and 2.8
- Seahorse time trace (OCR) ([2]; Fig. S1j/k, Control + MPP+, time 28 min): 9.7 and 9.86 and 4.4 and 3.39
- Seahorse time trace (OCR) ([2]; Fig. S1j/k, Control + MPP+, time 34 min): 9.59 and 9.6 and 4.42 and 3.28
- Seahorse time trace (OCR) ([2]; Fig. S1j/k, Control + MPP+, time 41 min): 32.36 and 38.18 and 30.73 and 25.11
- Seahorse time trace (OCR) ([2]; Fig. S1j/k, Control + MPP+, time 47 min): 29.9 and 35.04 and 27.29 and 22.64
- Seahorse time trace (OCR) ([2]; Fig. S1j/k, Control + MPP+, time 54 min): 29.63 and 34.46 and 27.32 and 22.95
- Seahorse time trace (OCR) ([2]; Fig. S1j/k, Control + MPP+, time 61 min): 9.52 and 9.47 and 4.93 and 3.5
- Seahorse time trace (OCR) ([2]; Fig. S1j/k, Control + MPP+, time 67 min): 9.83 (2×) and 4.57 and 3.36
- Seahorse time trace (OCR) ([2]; Fig. S1j/k, Control + MPP+, time 74 min): 9.8 and 10.29 and 4.41 and 3.28
- Seahorse time trace (OCR) ([2]; Fig. S1j, Nurr1 OE + MPP+, time 2 min): 21.96 and 38.12 and 34.89 and 26.1
- Seahorse time trace (OCR) ([2]; Fig. S1j, Nurr1 OE + MPP+, time 8 min): 20.5 and 33.32 and 33.36 and 24.15
- Seahorse time trace (OCR) ([2]; Fig. S1j, Nurr1 OE + MPP+, time 15 min): 22.25 and 31.43 and 31.49 and 19.26
- Seahorse time trace (OCR) ([2]; Fig. S1j, Nurr1 OE + MPP+, time 21 min): 7.36 and 10.03 and 6.69 and 7.02
- Seahorse time trace (OCR) ([2]; Fig. S1j, Nurr1 OE + MPP+, time 28 min): 8.04 and 9.23 and 7.6 and 8.44
- Seahorse time trace (OCR) ([2]; Fig. S1j, Nurr1 OE + MPP+, time 34 min): 7.79 and 8.85 and 8.38 and 8.58
- Seahorse time trace (OCR) ([2]; Fig. S1j, Nurr1 OE + MPP+, time 41 min): 58.47 and 42.11 and 44.82 and 40.84
- Seahorse time trace (OCR) ([2]; Fig. S1j, Nurr1 OE + MPP+, time 47 min): 58.99 and 40.77 and 43.63 and 37.36
- Seahorse time trace (OCR) ([2]; Fig. S1j, Nurr1 OE + MPP+, time 54 min): 57.85 and 39.58 and 42.17 and 36.47
- Seahorse time trace (OCR) ([2]; Fig. S1j, Nurr1 OE + MPP+, time 61 min): 7.42 and 11.41 and 5.09 and 5.68
- Seahorse time trace (OCR) ([2]; Fig. S1j, Nurr1 OE + MPP+, time 67 min): 7.08 and 11.69 and 6.18 and 6.3
